Results as given in ChEMBL document CHEMBL4257005, “Therapeutically active compounds and their methods of use” (2016).

How the values were obtained:
[1] = biological target: Isocitrate dehydrogenase [NADP] cytoplasmic (Homo sapiens, UniProt O75874, R132C); assay: Inhibition of DH1 R132C mutant homodimer (unknown origin) expressed in Sf9 cells pre-incubated for 1 hr before addition of alpha-KG followed by 90 mins incubation in presence of NADPH, NADP, diaphorase and resazurin by fluorescence spectrometry
[2] = biological target: Isocitrate dehydrogenase [NADP] cytoplasmic (Homo sapiens, UniProt O75874); assay: Inhibition of His-tagged wild type IDH1 (unknown origin)/FLAG-tagged IDH1 R132H mutant heterodimer expressed in Sf9 cells pre-incubated for 1 hr before addition of alpha-KG followed by diaphorase and resazurin addition and measured after 5 mins in presence of NADPH and 30 uM NADP ny fluorescence spectrometry
[3] = biological target: Isocitrate dehydrogenase [NADP] cytoplasmic (Homo sapiens, UniProt O75874, R132H); assay: Inhibition of DH1 R132H mutant homodimer (unknown origin) expressed in Sf9 cells pre-incubated for 1 hr before addition of alpha-KG followed by 90 mins incubation in presence of NADPH, NADP, diaphorase and resazurin by fluorescence spectrometry
Chain of Isocitrate dehydrogenase [NADP] cytoplasmic (Homo sapiens, UniProt O75874, R132H) (O75874 2-414 R132H limits assumed): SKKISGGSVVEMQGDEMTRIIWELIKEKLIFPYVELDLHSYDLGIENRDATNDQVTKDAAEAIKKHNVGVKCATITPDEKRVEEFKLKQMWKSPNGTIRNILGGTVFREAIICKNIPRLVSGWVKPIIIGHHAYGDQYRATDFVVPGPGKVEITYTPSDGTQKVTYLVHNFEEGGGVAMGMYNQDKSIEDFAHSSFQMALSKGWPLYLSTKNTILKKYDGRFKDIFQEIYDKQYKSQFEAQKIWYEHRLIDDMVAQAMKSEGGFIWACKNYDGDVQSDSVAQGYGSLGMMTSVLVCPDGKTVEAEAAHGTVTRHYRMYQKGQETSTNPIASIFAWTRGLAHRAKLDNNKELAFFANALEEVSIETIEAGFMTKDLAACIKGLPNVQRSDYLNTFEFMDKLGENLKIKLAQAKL

Chain of Isocitrate dehydrogenase [NADP] cytoplasmic (Homo sapiens, UniProt O75874, R132C) (O75874 2-414 R132C limits assumed): as the sequence (O75874 2-414 R132H limits assumed) above, with H131C counted along it
Chain of Isocitrate dehydrogenase [NADP] cytoplasmic (Homo sapiens, UniProt O75874) (O75874 2-414 limits assumed): as the sequence (O75874 2-414 R132H limits assumed) above, with H131R counted along it

Structure (SMILES)	IC50 [1]	other results
C[C@@H](Nc1nc(N[C@H](C)C2CC2)nc(-c2ccc(Cl)cc2)n1)C1CC1	–	IC50 [2]: Not Active
C[C@@H](Nc1nc(NCC(N)=O)nc(-c2cccc(C(F)(F)F)n2)n1)C1CC1	Not Active	–
COc1ccc(F)c(-c2nc(N[C@H](C)C3CC3)nc(N[C@H](C)C3CC3)n2)c1	–	IC50 [3]: Not Active

Now from value to compound, other results behind:

IC50 [1]	Structure (SMILES)	other results
Not Active	C[C@@H](Nc1nc(N[C@H](C)C2CC2)nc(-c2cccc(C(F)(F)F)n2)n1)C(=O)N(C)C	–
Not Active	C[C@@H](Nc1nc(N[C@H](C)C2CC2)nc(-c2cccc(C(F)(F)F)n2)n1)C(=O)O	–
